# Measurements reported in patent publication US20240382629A1, “HETEROBIVALENT AND HOMOBIVALENT AGENTS TARGETING FIBROBLAST ACTIVATION PROTEIN ALPHA AND/OR PROSTATE-SPECIFIC MEMBRANE ANTIGEN” (The Johns Hopkins University, priority 2021, published 2024).
# Tests used:
# U87 tumor = test: PET imaging and tissue biodistribution in U87 tumor-bearing mice; assay type: in vivo, mouse
# Procedure: (§1) Cell uptake assays, flow cytometry, and IHC were performed as described previously. Banerjee et al., 2019; Nimmagadda et al., 2018. PET imaging and biodistribution Sequential PET imaging and biodistribution studies were conducted to quantify and validate PET imaging data. Briefly, tumor-bearing mice were administrated approximately 7.4 MBq of radiotracer in 150 μL saline via tail-vein injection. They were randomized into the indicated groups of 3-4 mice before radiotracer injection.
# In Experiment 1, bilateral xenografts of U87 (right flank) and PSMA+ PC3 PIP (left flank) tumors were established in male NSG mice (n=3), which underwent imaging followed by biodistribution over 24 h. […] A biodistribution study was further conducted with U87 tumors at 2 h post-injection (n=3) to compare the tissue distribution properties of ^64Cu-FP-L1 and ^64Cu-FAPI-04.
# PSMA+ PC3 PIP tumor = test: PET imaging and biodistribution in PSMA+ PC3 PIP tumor-bearing mice; assay type: in vivo, mouse
# Procedure: as §1, with “Banerjee et al., 2019; Nimmagadda et al., 2018.” left out
# [1] = 4 h, NSG mice, U87 tumor, in %ID/g
# [2] = 24 h, NSG mice, U87 tumor, in %ID/g
# [3] = U87 in NSG mice, 20 μCi, n=3, G2/G3 and FAPI-04, in %ID/g
# [4] = male NSG mice bearing U87 xenografts, 2 h, n=3-4
# [5] = blocking with ZJ43 (500 nmol/kg)
structure (smiles),measurement,setting,value
"N#C[C@@H]1CCCN1C(=O)CNC(=O)c1ccnc2ccc(OCCCNC(=O)CCc3cn(CCOCCOCCOCCC(=O)N[C@@H](CCCCNC(=O)CN4CCN(CC(=O)O)CCN(CC(=O)O)CC4)C(=O)NCCCCC(=O)N(CCCC[C@H](NC(=O)N[C@@H](CCC(=O)O)C(=O)O)C(=O)O)Cc4ccc(Br)cc4)nn3)cc12 [^64Cu-FP-L1, metal not drawn]",Biodistribution: Fat,U87 tumor; [1],0.53 ± 0.10
same,Biodistribution: Heart,U87 tumor; [1],2.13 ± 0.17
same,Biodistribution: Kidney,U87 tumor; [1],16.57 ± 2.68
same,Biodistribution: Lac.gl,U87 tumor; [1],3.72 ± 0.72
same,Biodistribution: Liver,U87 tumor; [1],5.52 ± 0.39
same,Biodistribution: Lung,U87 tumor; [1],3.31 ± 0.26
same,Biodistribution: Muscle,U87 tumor; [1],1.08 ± 0.10
same,Biodistribution: Pancreas,U87 tumor; [1],3.19 ± 0.11
same,Biodistribution: Sal.gl,U87 tumor; [1],4.80 ± 0.82
same,Biodistribution: Sm.in,U87 tumor; [1],4.26 ± 0.33
same,Biodistribution: Spleen,U87 tumor; [1],2.05 ± 0.13
same,Biodistribution: Stomach,U87 tumor; [1],2.02 ± 0.30
same,Biodistribution: Tumor,U87 tumor; [1],13.81 ± 1.78
same,"Tumor uptake, FAP+ U87 tumor","U87 tumor; 4 h, bilateral U87 / PSMA+ PC3 PIP model",19.05±5.89 % ID/g
same,Biodistribution: Bladder,U87 tumor; [2],0.57 ± 0.13
same,Biodistribution: Blood,U87 tumor; [2],0.91 ± 0.23
same,Biodistribution: Bone,U87 tumor; [2],0.48 ± 0.08
same,Biodistribution: Fat,U87 tumor; [2],0.23 ± 0.10
same,Biodistribution: Heart,U87 tumor; [2],1.19 ± 0.34
same,Biodistribution: Kidney,U87 tumor; [2],2.45 ± 0.32
same,Biodistribution: Lac.gl,U87 tumor; [2],0.87 ± 0.14
same,Biodistribution: Liver,U87 tumor; [2],4.21 ± 1.00
same,Biodistribution: Lung,U87 tumor; [2],2.07 ± 0.40
same,Biodistribution: Muscle,U87 tumor; [2],0.23 ± 0.04
same,Biodistribution: Pancreas,U87 tumor; [2],0.72 ± 0.15
same,Biodistribution: Sal.gl,U87 tumor; [2],0.92 ± 0.14
same,Biodistribution: Sm.in,U87 tumor; [2],2.16 ± 0.29
same,Biodistribution: Spleen,U87 tumor; [2],1.67 ± 0.32
same,Biodistribution: Stomach,U87 tumor; [2],1.27 ± 0.14
same,Biodistribution: Tumor,U87 tumor; [2],3.25 ± 0.05
same,"Tumor uptake, FAP+ U87 tumor","U87 tumor; 24 h, bilateral U87 / PSMA+ PC3 PIP model",4.31±0.75 % ID/g
same,Biodistribution: Bladder,U87 tumor; [3],6.81 ± 3.65
same,Biodistribution: Blood,U87 tumor; [3],2.29 ± 0.17
same,Biodistribution: Bone,U87 tumor; [3],3.32 ± 0.74
same,Biodistribution: Fat,U87 tumor; [3],1.03 ± 0.39
same,Biodistribution: Heart,U87 tumor; [3],1.58 ± 0.17
same,Biodistribution: Kidney,U87 tumor; [3],9.05 ± 0.88
same,Biodistribution: Lacrimal,U87 tumor; [3],3.32 ± 0.36
same,Biodistribution: Liver,U87 tumor; [3],4.27 ± 0.53
same,Biodistribution: Lung,U87 tumor; [3],2.71 ± 0.40
same,Biodistribution: Muscle,U87 tumor; [3],1.52 ± 0.20
same,Biodistribution: Pancreas,U87 tumor; [3],1.02 ± 0.72
same,Biodistribution: Salivary,U87 tumor; [3],4.64 ± 0.26
same,Biodistribution: Sm. Intest.,U87 tumor; [3],3.01 ± 0.08
same,Biodistribution: Spleen,U87 tumor; [3],1.83 ± 0.14
same,Biodistribution: Stomach,U87 tumor; [3],2.17 ± 0.12
same,Biodistribution: U87,U87 tumor; [3],7.79 ± 1.12
same,Bone uptake,U87 tumor; bilateral U87 / PSMA+ PC3 PIP model,> 1 % ID/g
same,Biodistribution: Bladder,U87 tumor; [4],6.16 ± 4.37 % ID/g
same,Biodistribution: Blood,U87 tumor; [4],1.87 ± 0.24 % ID/g
same,Biodistribution: Bone,U87 tumor; [4],2.02 ± 0.79 % ID/g
same,Biodistribution: Fat,U87 tumor; [4],0.35 ± 0.20 % ID/g
same,Biodistribution: Heart,U87 tumor; [4],1.36 ± 0.28 % ID/g
same,Biodistribution: Kidney,U87 tumor; [4],7.26 ± 2.83 % ID/g
same,Biodistribution: Lacrimal glands,U87 tumor; [4],4.74 ± 1.57 % ID/g
same,Biodistribution: Liver,U87 tumor; [4],4.05 ± 0.53 % ID/g
same,Biodistribution: Lung,U87 tumor; [4],2.80 ± 0.68 % ID/g
same,Biodistribution: Muscle,U87 tumor; [4],1.11 ± 0.23 % ID/g
same,Biodistribution: Pancreas,U87 tumor; [4],0.99 ± 0.18 % ID/g
same,Biodistribution: Salivary Glands,U87 tumor; [4],3.10 ± 0.51 % ID/g
same,Biodistribution: Sm. Intestine,U87 tumor; [4],2.32 ± 0.79 % ID/g
same,Biodistribution: Spleen,U87 tumor; [4],1.39 ± 0.10 % ID/g
same,Biodistribution: Stomach,U87 tumor; [4],1.89 ± 0.10 % ID/g
same,Biodistribution: U87,U87 tumor; [4],10.83 ± 1.02 % ID/g
same,Uptake in PSMA+ PC3 PIP tumor,PSMA+ PC3 PIP tumor; 2 h,12.06±0.78 % ID/g
same,Uptake in PSMA+ PC3 PIP tumors with FAP blockade,"PSMA+ PC3 PIP tumor; 2 h, blocking with FAPI-04 (500 nmol/kg)",18.56±2.02 % ID/g
same,Uptake in PSMA+ PC3 PIP tumor,PSMA+ PC3 PIP tumor; 4 h,18.89±3.95 % ID/g
same,Uptake in PSMA+ PC3 PIP tumor,PSMA+ PC3 PIP tumor; 24 h,10.51±1.82 % ID/g
same,Fold lower kidney uptake with ZJ43 vs unblocked,PSMA+ PC3 PIP tumor; ZJ43 (500 nmol/kg),> 2 fold
same,Kidney uptake with PSMA blockade,PSMA+ PC3 PIP tumor; [5],2.97±0.23 % ID/g
same,Uptake in PSMA+ PIP tumor with PSMA blockade,PSMA+ PC3 PIP tumor; [5],7.48±0.5 % ID/g
same,Tumor uptake and retention in PSMA+PC3 PIP tumor,PSMA+ PC3 PIP tumor; from 1 to 24 h post-injection,> 10 % injected dose per gram of tissue
same,"Kidney uptake, unblocked agent",PSMA+ PC3 PIP tumor; unblocked,8.03±0.89 % ID/g
